Results: patent US12459932B2, “KIF18A inhibitors” (AMGEN INC., priority 2018, dated 2025)

target: T1, Recombinant human KIF18A (1-467 His-tagged) (Homo sapiens, UniProt Q8NI77); assay: KIF18A Enzyme Assay: microtubule-stimulated ATPase activity (ADP-Glo); format: biochemical; settings: 30 nM KIF18A, 30 μg/mL pig microtubules, ATP 75 μM (Km), ADP-Glo luminescence
T1 construct: Recombinant human KIF18A (1-467 His-tagged) protein; His
In short: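 Measures microtubule-stimulated ATPase activity as ADP formed, detected by luminescence. Compounds were tested as 2-fold serial dilutions over 22 points. IC50 values came from four-parameter logistic fits.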

T1 sequence (Q8NI77 1-467): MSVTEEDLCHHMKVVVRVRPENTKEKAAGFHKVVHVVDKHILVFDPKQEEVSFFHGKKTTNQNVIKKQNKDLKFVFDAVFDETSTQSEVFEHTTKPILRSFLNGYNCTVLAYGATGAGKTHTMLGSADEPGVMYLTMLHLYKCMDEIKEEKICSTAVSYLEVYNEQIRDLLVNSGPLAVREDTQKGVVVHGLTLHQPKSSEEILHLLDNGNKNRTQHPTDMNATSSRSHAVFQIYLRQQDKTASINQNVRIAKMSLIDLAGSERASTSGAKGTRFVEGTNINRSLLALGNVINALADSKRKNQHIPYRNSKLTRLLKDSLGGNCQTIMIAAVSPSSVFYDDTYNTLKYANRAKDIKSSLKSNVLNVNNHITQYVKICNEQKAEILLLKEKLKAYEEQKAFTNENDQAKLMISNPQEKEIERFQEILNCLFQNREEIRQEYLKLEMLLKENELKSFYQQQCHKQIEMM
T1 sequence (P02550 whole entry partner): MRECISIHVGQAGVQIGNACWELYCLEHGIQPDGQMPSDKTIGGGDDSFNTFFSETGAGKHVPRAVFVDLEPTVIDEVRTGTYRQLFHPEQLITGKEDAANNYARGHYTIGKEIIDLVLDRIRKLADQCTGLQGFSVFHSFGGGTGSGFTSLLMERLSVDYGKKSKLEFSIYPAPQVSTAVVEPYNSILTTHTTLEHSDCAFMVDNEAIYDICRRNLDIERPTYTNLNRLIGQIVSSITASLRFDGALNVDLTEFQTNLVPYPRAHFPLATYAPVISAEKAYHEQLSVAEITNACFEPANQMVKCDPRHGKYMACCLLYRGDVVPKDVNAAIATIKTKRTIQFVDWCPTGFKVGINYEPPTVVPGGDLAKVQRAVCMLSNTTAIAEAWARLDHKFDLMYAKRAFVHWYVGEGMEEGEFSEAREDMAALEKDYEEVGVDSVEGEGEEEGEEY
T1 sequence (P02554 whole entry partner): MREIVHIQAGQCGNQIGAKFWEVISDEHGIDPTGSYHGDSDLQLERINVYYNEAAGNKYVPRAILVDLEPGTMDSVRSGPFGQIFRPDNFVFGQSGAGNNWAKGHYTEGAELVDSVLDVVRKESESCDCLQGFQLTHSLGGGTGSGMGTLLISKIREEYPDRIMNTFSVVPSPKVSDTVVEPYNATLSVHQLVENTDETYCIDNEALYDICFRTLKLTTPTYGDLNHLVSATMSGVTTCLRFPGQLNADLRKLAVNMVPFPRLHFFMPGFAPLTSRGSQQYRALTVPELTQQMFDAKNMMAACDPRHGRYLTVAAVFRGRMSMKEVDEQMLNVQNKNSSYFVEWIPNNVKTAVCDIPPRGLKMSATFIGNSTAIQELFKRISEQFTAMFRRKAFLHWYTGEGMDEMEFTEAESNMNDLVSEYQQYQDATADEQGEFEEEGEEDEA

SMILES | IC50 [nM]
C[C@@H]1CN(c2cccc(NC(=O)c3ccc(NS(=O)(=O)C4(F)CC4)cc3N3CCC4(CC3)CC4)n2)CCO1 [Example 7-15, (R)-4-((1-Fluorocyclopropane)-1-sulfonamido)-N-(6-(2-methylmorpholino)pyridin-2-yl)-2-(6-azaspiro[2.5]octan-6-yl)benzamide] | 90
Cc1cc(NC(=O)c2ccc(NS(C)(=O)=O)cc2N2CCC3(CC2)CC3)nc(N2CCC(F)(F)CC2)c1 [Example 7-21, N-(6-(4,4-Difluoropiperidin-1-yl)-4-methylpyridin-2-yl)-4-(methylsulfonamido)-2-(6-azaspiro[2.5]octan-6-yl)benzamide] | 49
Cc1cc(NC(=O)c2ccc(NS(=O)(=O)C(C)(C)C)cc2N2CCC3(CC2)CC3)nc(N2CCC(F)(F)CC2)c1 [Example 7-22, N-(6-(4,4-Difluoropiperidin-1-yl)-4-methylpyridin-2-yl)-4-((1,1-dimethylethyl)sulfonamido)-2-(6-azaspiro[2.5]octan-6-yl)benzamide] | 103
Cc1cc(NC(=O)c2ccc(NS(=O)(=O)C3CCC3)cc2N2CCC3(CC2)CC3)nc(N2CCC(F)(F)CC2)c1 [Example 7-23, 4-(Cyclobutanesulfonamido)-N-(6-(4,4-difluoropiperidin-1-yl)-4-methylpyridin-2-yl)-2-(6-azaspiro[2.5]octan-6-yl)benzamide] | 110
Cc1cc(NC(=O)c2ccc(NS(=O)(=O)CC3CC3)cc2N2CCC3(CC2)CC3)nc(N2CCC(F)(F)CC2)c1 [Example 7-24, 4-((Cyclopropylmethyl)sulfonamido)-N-(6-(4,4-difluoropiperidin-1-yl)-4-methylpyridin-2-yl)-2-(6-azaspiro[2.5]octan-6-yl)benzamide] | 186
Cc1cc(NC(=O)c2ccc(NS(=O)(=O)C3CC3)cc2N2CCC3(CC2)CC3)nc(N2CCC(F)(F)CC2)c1 [Example 7-25, 4-(Cyclopropanesulfonamido)-N-(6-(4,4-difluoropiperidin-1-yl)-4-methylpyridin-2-yl)-2-(6-azaspiro[2.5]octan-6-yl)benzamide] | 39
O=C(Nc1cccc(N2CCC(F)(F)CC2)n1)c1ccc(NS(=O)(=O)CCO)cc1N1CCC2(CC1)CC2 [Example 7-26, N-(6-(4,4-Difluoropiperidin-1-yl)pyridin-2-yl)-4-((2-hydroxyethyl)sulfonamido)-2-(6-azaspiro[2.5]octan-6-yl)benzamide] | 23

The remaining lines, values ahead:

IC50 [nM] | SMILES
67 | C[C@@H]1CN(c2cccc(NC(=O)c3ccc(NS(=O)(=O)C(C)(C)C)cc3N3CCC4(CC3)CC4)n2)CCO1 [Example 7-16, (R)-4-((1,1-Dimethylethyl)sulfonamido)-N-(6-(2-methylmorpholino)pyridin-2-yl)-2-(6-azaspiro[2.5]octan-6-yl)benzamide]
17 | Cc1cc(NC(=O)c2ccc(NS(=O)(=O)CCO)cc2N2CCC3(CC2)CC3)nc(N2CCOCC2)c1 [Example 7-17, 4-((2-Hydroxyethyl)sulfonamido)-N-(4-methyl-6-morpholinopyridin-2-yl)-2-(6-azaspiro[2.5]octan-6-yl)benzamide]
74 | Cc1cc(NC(=O)c2ccc(NS(=O)(=O)CCO)cc2N2CCC3(CC2)CC3)nc(N2CCO[C@H](C)C2)c1 [Example 7-18, (R)-4-((2-Hydroxyethyl)sulfonamido)-N-(4-methyl-6-(2-methylmorpholino)pyridin-2-yl)-2-(6-azaspiro[2.5]octan-6-yl)benzamide]
49 | Cc1cc(NC(=O)c2ccc(NS(=O)(=O)CCO)cc2N2CCC3(CC2)CC3)nc(N2CCO[C@@H](C)C2)c1 [Example 7-19, (S)-4-((2-Hydroxyethyl)sulfonamido)-N-(4-methyl-6-(2-methylmorpholino)pyridin-2-yl)-2-(6-azaspiro[2.5]octan-6-yl)benzamide]
36 | O=C(Nc1cccc(N2CCOCC2)n1)c1ccc(NS(=O)(=O)CCO)cc1N1CCC2(CC1)CC2 [Example 7-20, 4-((2-Hydroxyethyl)sulfonamido)-N-(6-morpholinopyridin-2-yl)-2-(6-azaspiro[2.5]octan-6-yl)benzamide]
